According to paper PMC2976784 (Proteins, 2010):

What follows are molecules tested against T1, YndB (Bacillus subtilis, UniProt O31806) (assay: 2D 1H-15N HSQC NMR titration, chemical shift perturbation fit).
T1 sequence (O31806 1-144): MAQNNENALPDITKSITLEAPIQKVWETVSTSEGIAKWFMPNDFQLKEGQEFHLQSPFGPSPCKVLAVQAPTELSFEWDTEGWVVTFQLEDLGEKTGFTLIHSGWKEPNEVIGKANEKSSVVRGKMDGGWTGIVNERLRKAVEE
Type: binding

Kd [µM]	SMILES
32 ± 3	O=C1CC(c2ccccc2)Oc2ccccc21 (stereo not shown) [flavanone]
62 ± 9	O=c1cc(-c2ccccc2)oc2ccccc12 [flavone]
86 ± 16	O=c1c(O)c(-c2ccccc2)oc2ccccc12 [flavonol]
< 1	O=C(/C=C/c1ccccc1)c1ccccc1 [trans-chalcone]
